The text below walks through data of patent publication US6713476B2, “Substituted cycloalkyls as inhibitors of a beta protein production” (Dupont Pharmaceuticals Company, priority 2000, dated 2004).

Structures are written as SMILES.

Consider `CN1C(=O)[C@@H](NC(=O)C2(CNC3CCCCC3)CCCC2)N=C(c2ccccc2)c2ccccc21`, for which the melting point lay in the range of 82 to 86 °C.

For orientation: melting point means the temperature of the solid-liquid transition.
